Data from US20260130395A1, “Water Dispersible Botanical Compositions” (Aquila Black Limited, priority 2021, published 2026).

Assay: Stability of cannabinoid compounds and Vitamin E components in Beverage 2 (AB Red) by LCMSMS
Assay type: physicochemical

CCCCCc1cc(O)c2c(c1)OC(C)(CCC=C(C)C)C=C2 (centres unmarked) [CBC, cannabichromene]
Stability of Plant-Derived Cannabinoid Compounds in AB Red (stored at 8° C., 0 days): 0.290 µg/mL
Stability of Plant-Derived Cannabinoid Compounds in AB Red (stored at 8° C., 1 days): 0.289 µg/mL
Stability of Plant-Derived Cannabinoid Compounds in AB Red (stored at 8° C., 2 days): 0.292 µg/mL
Stability of Plant-Derived Cannabinoid Compounds in AB Red (stored at 8° C., 3 days): 0.285 µg/mL
Stability of Plant-Derived Cannabinoid Compounds in AB Red (stored at 8° C., 5 days): 0.286 µg/mL
Stability of Plant-Derived Cannabinoid Compounds in AB Red (stored at 8° C., 8 days): 0.286 µg/mL
Stability of Plant-Derived Cannabinoid Compounds in AB Red (stored at 8° C., 9 days): 0.288 µg/mL
Stability of Plant-Derived Cannabinoid Compounds in AB Red (stored at 8° C., 10 days): 0.288 µg/mL
Stability of Plant-Derived Cannabinoid Compounds in AB Red (stored at 8° C., 11 days): 0.284 µg/mL
Stability of Plant-Derived Cannabinoid Compounds in AB Red (stored at 8° C., 12 days): 0.285 µg/mL
Stability of Plant-Derived Cannabinoid Compounds in AB Red (stored at 8° C., 15 days): 0.292 µg/mL
Stability of Plant-Derived Cannabinoid Compounds in AB Red (stored at 8° C., 16 days): 0.283 µg/mL
Stability of Plant-Derived Cannabinoid Compounds in AB Red (stored at 8° C., 17 days): 0.282 µg/mL
Stability of Plant-Derived Cannabinoid Compounds in AB Red (stored at 8° C., 18 days): 0.289 µg/mL
Stability of Plant-Derived Cannabinoid Compounds in AB Red (stored at 8° C., 19 days): 0.287 µg/mL
Stability of Plant-Derived Cannabinoid Compounds in AB Red (stored at 8° C., 22 days): 0.287 µg/mL
Stability of Plant-Derived Cannabinoid Compounds in AB Red (stored at 8° C., 23 days): 0.287 µg/mL
Stability of Plant-Derived Cannabinoid Compounds in AB Red (stored at 8° C., 24 days): 0.291 µg/mL
Stability of Plant-Derived Cannabinoid Compounds in AB Red (stored at 8° C., 25 days): 0.287 µg/mL
Stability of Plant-Derived Cannabinoid Compounds in AB Red (stored at 8° C., 26 days): 0.287 µg/mL
Stability of Plant-Derived Cannabinoid Compounds in AB Red (stored at 8° C., 29 days): 0.284 µg/mL
Stability of Plant-Derived Cannabinoid Compounds in AB Red (stored at 8° C., 30 days): 0.282 µg/mL
Stability of Plant-Derived Cannabinoid Compounds in AB Red (stored at 8° C., 60 days): 0.278 µg/mL
Stability of Plant-Derived Cannabinoid Compounds in AB Red (stored at 8° C., 90 days): 0.287 µg/mL
Stability of Plant-Derived Cannabinoid Compounds in AB Red (stored at 8° C., 120 days): 0.289 µg/mL
Stability of Plant-Derived Cannabinoid Compounds in AB Red (stored at 8° C., 150 days): 0.281 µg/mL
Stability of Plant-Derived Cannabinoid Compounds in AB Red (stored at 8° C., 180 days): 0.285 µg/mL
Stability of Plant-Derived Cannabinoid Compounds in AB Red (stored at 8° C., 210 days): 0.282 µg/mL
Stability of Plant-Derived Cannabinoid Compounds in AB Red (stored at 8° C., 240 days): 0.280 µg/mL
Stability of Plant-Derived Cannabinoid Compounds in AB Red (stored at 8° C., 270 days): 0.284 µg/mL
Stability of Plant-Derived Cannabinoid Compounds in AB Red (stored at 8° C., 300 days): 0.280 µg/mL
Stability of Plant-Derived Cannabinoid Compounds in AB Red (stored at 8° C., 330 days): 0.278 µg/mL
Stability of Plant-Derived Cannabinoid Compounds in AB Red (stored at 8° C., 360 days): 0.282 µg/mL
Stability of Plant-Derived Cannabinoid Compounds in AB Red (stored at 8° C., 390 days): 0.282 µg/mL
Stability of Plant-Derived Cannabinoid Compounds in AB Red (stored at 8° C., 420 days): 0.277 µg/mL
Stability of Plant-Derived Cannabinoid Compounds in AB Red (stored at 8° C., 450 days): 0.282 µg/mL
Stability of Plant-Derived Cannabinoid Compounds in AB Red (stored at 8° C., 480 days): 0.274 µg/mL
Stability of Plant-Derived Cannabinoid Compounds in AB Red (stored at 8° C., 510 days): 0.267 µg/mL
Stability of Plant-Derived Cannabinoid Compounds in AB Red (stored at 8° C., 540 days): 0.271 µg/mL
Stability of Plant-Derived Cannabinoid Compounds in AB Red (stored at 8° C., 570 days): 0.266 µg/mL
Stability of Plant-Derived Cannabinoid Compounds in AB Red (stored at 21-25° C., 0 days): 0.29 µg/mL
Stability of Plant-Derived Cannabinoid Compounds in AB Red (stored at 21-25° C., 1 days): 0.28 µg/mL
Stability of Plant-Derived Cannabinoid Compounds in AB Red (stored at 21-25° C., 2 days): 0.28 µg/mL
Stability of Plant-Derived Cannabinoid Compounds in AB Red (stored at 21-25° C., 3 days): 0.29 µg/mL
Stability of Plant-Derived Cannabinoid Compounds in AB Red (stored at 21-25° C., 5 days): 0.28 µg/mL
Stability of Plant-Derived Cannabinoid Compounds in AB Red (stored at 21-25° C., 8 days): 0.28 µg/mL
Stability of Plant-Derived Cannabinoid Compounds in AB Red (stored at 21-25° C., 9 days): 0.28 µg/mL
Stability of Plant-Derived Cannabinoid Compounds in AB Red (stored at 21-25° C., 10 days): 0.29 µg/mL
Stability of Plant-Derived Cannabinoid Compounds in AB Red (stored at 21-25° C., 11 days): 0.29 µg/mL
Stability of Plant-Derived Cannabinoid Compounds in AB Red (stored at 21-25° C., 12 days): 0.28 µg/mL
Stability of Plant-Derived Cannabinoid Compounds in AB Red (stored at 21-25° C., 15 days): 0.28 µg/mL
Stability of Plant-Derived Cannabinoid Compounds in AB Red (stored at 21-25° C., 16 days): 0.28 µg/mL
Stability of Plant-Derived Cannabinoid Compounds in AB Red (stored at 21-25° C., 17 days): 0.28 µg/mL
Stability of Plant-Derived Cannabinoid Compounds in AB Red (stored at 21-25° C., 18 days): 0.29 µg/mL
Stability of Plant-Derived Cannabinoid Compounds in AB Red (stored at 21-25° C., 19 days): 0.29 µg/mL
Stability of Plant-Derived Cannabinoid Compounds in AB Red (stored at 21-25° C., 22 days): 0.29 µg/mL
Stability of Plant-Derived Cannabinoid Compounds in AB Red (stored at 21-25° C., 23 days): 0.28 µg/mL
Stability of Plant-Derived Cannabinoid Compounds in AB Red (stored at 21-25° C., 24 days): 0.29 µg/mL
Stability of Plant-Derived Cannabinoid Compounds in AB Red (stored at 21-25° C., 25 days): 0.28 µg/mL
Stability of Plant-Derived Cannabinoid Compounds in AB Red (stored at 21-25° C., 26 days): 0.28 µg/mL
Stability of Plant-Derived Cannabinoid Compounds in AB Red (stored at 21-25° C., 29 days): 0.29 µg/mL
Stability of Plant-Derived Cannabinoid Compounds in AB Red (stored at 21-25° C., 30 days): 0.29 µg/mL
Stability of Plant-Derived Cannabinoid Compounds in AB Red (stored at 21-25° C., 60 days): 0.29 µg/mL
Stability of Plant-Derived Cannabinoid Compounds in AB Red (stored at 21-25° C., 90 days): 0.28 µg/mL
Stability of Plant-Derived Cannabinoid Compounds in AB Red (stored at 21-25° C., 120 days): 0.29 µg/mL
Stability of Plant-Derived Cannabinoid Compounds in AB Red (stored at 21-25° C., 150 days): 0.29 µg/mL
Stability of Plant-Derived Cannabinoid Compounds in AB Red (stored at 21-25° C., 180 days): 0.28 µg/mL
Stability of Plant-Derived Cannabinoid Compounds in AB Red (stored at 21-25° C., 210 days): 0.29 µg/mL
Stability of Plant-Derived Cannabinoid Compounds in AB Red (stored at 21-25° C., 240 days): 0.28 µg/mL
Stability of Plant-Derived Cannabinoid Compounds in AB Red (stored at 21-25° C., 270 days): 0.29 µg/mL
Stability of Plant-Derived Cannabinoid Compounds in AB Red (stored at 21-25° C., 300 days): 0.29 µg/mL
Stability of Plant-Derived Cannabinoid Compounds in AB Red (stored at 21-25° C., 330 days): 0.29 µg/mL
Stability of Plant-Derived Cannabinoid Compounds in AB Red (stored at 21-25° C., 360 days): 0.28 µg/mL
Stability of Plant-Derived Cannabinoid Compounds in AB Red (stored at 21-25° C., 390 days): 0.28 µg/mL
Stability of Plant-Derived Cannabinoid Compounds in AB Red (stored at 21-25° C., 420 days): 0.28 µg/mL
Stability of Plant-Derived Cannabinoid Compounds in AB Red (stored at 21-25° C., 450 days): 0.28 µg/mL
Stability of Plant-Derived Cannabinoid Compounds in AB Red (stored at 21-25° C., 480 days): 0.28 µg/mL
Stability of Plant-Derived Cannabinoid Compounds in AB Red (stored at 21-25° C., 510 days): 0.27 µg/mL
Stability of Plant-Derived Cannabinoid Compounds in AB Red (stored at 21-25° C., 540 days): 0.28 µg/mL
Stability of Plant-Derived Cannabinoid Compounds in AB Red (stored at 21-25° C., 570 days): 0.27 µg/mL
